Counter-ions that a name gives are not always drawn. Each block holds one compound with its values, some of them ahead of it.
Columns and labels:
[1] = tested on: cultured human mast cells (CHMC); assay: CHMC low cell density IgE activation: tryptase assay; assay type: cell-based; details: IgE activation
How it was run: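 Fluorogenic readout of tryptase released into the supernatant (30 min substrate incubation, room temperature) measures degranulation. Cells were plated at low density (1000–1500/well, varied by donor) and triggered with anti-IgE for 30 min at 37 °C.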

[2] = tested on: cultured human mast cells (CHMC); assay: CHMC low cell density ionomycin activation: tryptase assay; assay type: cell-based; details: read-out: LD Tryptase, CHMC, Iono, 3 pt
[3] = Homo sapiens, Mast cell, low cell density CHMC, tryptase, 3 pt, read-out: LD Tryptase, CHMC, IgE, 3 pt
[4] = Homo sapiens, Mast cell, low cell density CHMC, tryptase, 3 pt
[5] = Homo sapiens, Mast cell, low cell density CHMC, tryptase release, 3 point, read-out: LD Tryptase, CHMC, IgE, 3 pt
[6] = Homo sapiens, Mast cell, low cell density CHMC, tryptase release, 3 point
[7] = Homo sapiens, Mast cell, low cell density CHMC, tryptase release, 3 pt, read-out: LD Tryptase, CHMC, IgE, 3 pt
[8] = Homo sapiens, Mast cell, low cell density CHMC, tryptase release, 8 pt, read-out: LD Tryptase, CHMC, IgE, 8 pt
[9] = Homo sapiens, Mast cell, low cell density CHMC, tryptase release, 3 pt
[10] = low cell density CHMC, tryptase, 3 pt, read-out: LD Tryptase, CHMC, IgE, 3 pt
[11] = low cell density CHMC, tryptase, 3 pt
[12] = low cell density CHMC, tryptase readout, 3 pt, read-out: LD Tryptase, CHMC, IgE, 3 pt
[13] = low cell density CHMC, tryptase readout, 3 pt
[14] = low cell density CHMC, tryptase readout, 8 pt, read-out: LD Tryptase, CHMC, IgE, 8 pt

Compound: CN(c1ccc2c(c1)OCCO2)c1nc(Nc2cccc(-c3ncco3)c2)ncc1F [Compound 412]
IC50 [1, 3]: < 10 µM
IC50 [2, 4]: < 10 µM

Compound: Cc1cc(N(C)c2nc(Nc3cccc(-c4cnco4)c3)ncc2F)cc(C)c1Cl [Compound 597]
IC50 [1, 5]: < 10 µM
IC50 [2, 6]: > 10 µM

Compound: CNC(=O)c1ccc(Nc2ncc(F)c(Nc3ccc(Cl)c(C(F)(F)F)c3)n2)cc1Cl [Compound 612, N2-[3-Chloro-4-(N-methylamino)carbonylphenyl]-N4-(4-chloro-3-trifluoromethylphenyl)-5-fluoro-2,4-pyrimidinediamine]
IC50 [1, 5]: < 10 µM
IC50 ([1]; Homo sapiens, Mast cell, low cell density CHMC, tryptase release, 8 point, read-out: LD Tryptase, CHMC, IgE, 8 pt): < 10 µM
IC50 [2, 6]: > 10 µM

Compound: COCCCn1ncc2cc(Nc3ncc(F)c(Nc4ccc5c(c4)NC(=O)[C@H](C)O5)n3)ccc21 [Compound 795, (S)-5-Fluoro-N2-[1-(3-methoxypropyl)indazol-5-yl]-N4-(2-methyl-3-oxo-2H,4H-benz[1,4]oxazin-6-yl)-2,4-pyrimidinediamine]
IC50 [1, 7]: < 10 µM
IC50 [1, 8]: < 10 µM
IC50 [2, 9]: > 10 µM

Compound: COc1ccc(Nc2nc(Cl)ncc2F)cc1Cl [Compound 666]
IC50 [1, 5]: > 10 µM
IC50 [2, 6]: > 10 µM

Compound: CNC(=O)COc1cccc(Nc2ncc(F)c(N(C)c3cc(OC)cc(OC)c3)n2)c1 [Compound 398, N4-(3,5-Dimethoxyphenyl)-5-fluoro-N4-methyl-N2-[3-(N-methylamino)carbonylmethyleneoxyphenyl]-2,4-pyrimidinediamine]
IC50 [1, 10]: < 10 µM
IC50 [2, 11]: > 10 µM

Compound: CNC(=O)COc1cccc(Nc2ncc(F)c(Nc3ccc4c(c3)NC(=O)C(F)(F)O4)n2)c1 [Compound 1046, N4-(2,2-Difluoro-3-oxo-4H-benz[1,4]oxazin-6-yl)-5-fluoro-N2-[3-(N-methylamino)carbonylmethyleneoxyphenyl]-2,4-pyrimidinediamine Methanesulfonic Acid Salt]
IC50 [1, 12]: < 10 µM
IC50 [1, 14]: < 10 µM
IC50 [2, 13]: > 10 µM

Compound: CCn1ncc2ccc(Nc3ncc(F)c(Nc4ccc(F)c(OC)c4)n3)cc21 [Compound 701, N2-(1-Ethylindazol-6-yl)-5-fluoro-N4-(4-fluoro-3-methoxyphenyl)-2,4-pyrimidinediamine]
IC50 [1, 3]: < 10 µM
IC50 [2, 4]: < 10 µM

Compound: COC(=O)Cn1ccc2ccc(Nc3ncc(F)c(Nc4ccc(Cl)c(OC)c4)n3)cc21 [Compound 641, N4-(4-Chloro-3-methoxyphenyl)-5-fluoro-N2-[1-(methoxycarbonylmethylene)indol-6-yl]-2,4-pyrimidinediamine]
IC50 ([1]; low cell density CHMC, tryptase release, 3 point, read-out: LD Tryptase, CHMC, IgE, 3 pt): < 10 µM
IC50 ([1]; low cell density CHMC, tryptase release, 8 point, read-out: LD Tryptase, CHMC, IgE, 8 pt): < 10 µM
IC50 ([2]; low cell density CHMC, tryptase release, 3 point): < 10 µM

Compound: CNC(=O)CNC(=O)c1ccc(Nc2ncc(F)c(Nc3ccc4c(c3)NC(=O)C(C)(C)O4)n2)cc1 [Compound 1295, N4-(2,2-Dimethyl-3-oxo-4H-benz[1,4]oxazin-6-yl)-5-fluoro-N2-[4-[N-(N-methylamino)carbonylmethylene]aminocarbonylphenyl]-2,4-pyrimidinediamine]
IC50 [1, 10]: < 10 µM
IC50 ([1]; low cell density CHMC, tryptase, 8 pt, read-out: LD Tryptase, CHMC, IgE, 8 pt): < 10 µM
IC50 [2, 11]: > 10 µM

Compound: COc1ccc(Nc2ncc(F)c(N(C)c3ccc4c(c3)N(C)C(=O)C(C)(C)O4)n2)cc1Cl [Compound 392]
IC50 [1, 3]: < 10 µM
IC50 [2, 4]: < 10 µM

Compound: COc1ccc(Nc2nc(Nc3cc(C)cc(C)c3)ncc2F)cc1OC [Compound 413]
IC50 [1, 3]: < 10 µM
IC50 ([1]; Homo sapiens, Mast cell, low cell density CHMC, tryptase, 8 pt, read-out: LD Tryptase, CHMC, IgE, 8 pt): < 10 µM
IC50 [2, 4]: > 10 µM

Compound: COc1cc(OC)c(-c2nc(N)nc(Nc3ccc4c(c3)NC(=O)[C@H](C)O4)c2F)cc1Cl [Compound 215]
IC50 [1, 7]: < 10 µM
IC50 [1, 8]: < 10 µM
IC50 [2, 9]: > 10 µM

Compound: COc1cc(OC)cc(N(C)c2nc(Nc3ccc(Cl)c(OC)c3)ncc2F)c1 [Compound 405]
IC50 [1, 3]: < 10 µM
IC50 [2, 4]: > 10 µM

Compound: CC1(C)COc2ccc(Nc3nc(Nc4cccc(-c5ncco5)c4)ncc3F)cc2N1 [Compound 218, N4-(3,4-Dihydro-3,3-dimethyl-2H,4H-benz[1,4]oxazin-6-yl)-5-fluoro-N2-[3-(oxazol-2-yl)phenyl]-2,4-pyrimidinediamine]
IC50 ([1]; low cell density CHMC, tryptase release, 3 pt, read-out: LD Tryptase, CHMC, IgE, 3 pt): < 10 µM
IC50 ([1]; low cell density CHMC, tryptase release, 8 pt, read-out: LD Tryptase, CHMC, IgE, 8 pt): < 10 µM
IC50 ([2]; low cell density CHMC, tryptase release, 3 pt): > 10 µM

Compound: CC1(C)Oc2ccc(Nc3nc(Nc4ccc5[nH]c(C(F)(F)F)nc5c4)ncc3F)nc2NC1=O [Compound 846, N4-(2,2-Dimethyl-3-oxo-4H-5-pyrid[1,4]oxazin-6-yl)-5-fluoro-N2-(2-trifluoromethyl-1H-benzimidazol-5-yl)-2,4-pyrimidinediamine]
IC50 [1, 8]: < 10 µM
IC50 [2, 9]: < 10 µM

Compound: COCCCn1ncc2ccc(Nc3ncc(F)c(Nc4ccc(OC)c(Cl)c4)n3)cc21 [Compound 796, N4-(3-Chloro-4-methoxyphenyl)-5-fluoro-N2-[1-(3-methoxypropyl)indazol-6-yl]-2,4-pyrimidinediamine]
IC50 [1, 7]: < 10 µM
IC50 [1, 8]: < 10 µM
IC50 [2, 9]: > 10 µM

Further lines, results first:

IC50 [1, 3]: < 10 µM
IC50 [2, 4]: > 10 µM
Compound: CCOC(=O)N1CCN(c2cccc(Nc3ncc(F)c(NC4CCCC4)n3)c2)CC1 [Compound 1161]

IC50 [1, 3]: < 10 µM
IC50 [2, 4]: > 10 µM
Compound: COc1ccc(Nc2nc(Nc3ccc(N4CCN(C(C)=O)CC4)cc3)ncc2F)cc1OC [Compound 430, N2-[4-(4-Acetylpiperazino)phenyl]-N4-(3,4-dimethoxyphenyl)-5-fluoro-2,4-pyrimidinediamine]

IC50 ([1]; Homo sapiens, Mast cell, low cell density CHMC, tryptase readout, 3 pt, read-out: LD Tryptase, CHMC, IgE, 3 pt): > 10 µM
IC50 ([2]; Homo sapiens, Mast cell, low cell density CHMC, tryptase readout, 3 pt): > 10 µM
Compound: CN1CCN(c2ccc(Nc3ncc(F)c(Nc4cccc(NC5=NCCN5)c4)n3)cc2)CC1 [Compound 1099, 5-Fluoro-N4-[3-(N-2-imidazolin-2-yl)aminophenyl]-N2-[4-(4-methylpiperazino)phenyl]-2,4-pyrimidinediamine]

IC50 [1, 3]: < 10 µM
IC50 [2, 4]: > 10 µM
Compound: O=C(Nc1ccc(Nc2ncc(F)c(NC3CCCC3)n2)cc1)c1ccccc1 [Compound 1170, N2-(4-Benzamidophenyl)-N4-cyclopentyl-5-fluoro-2,4-pyrimidinediamine]

IC50 ([1]; Homo sapiens, Mast cell, low cell density, 3 pt, read-out: LD Tryptase, CHMC, IgE, 3 pt): > 10 µM
IC50 ([2]; Homo sapiens, Mast cell, low cell density, 3 pt): > 10 µM
Compound: CCOC(=O)c1cc2cccc(Nc3ncc(F)c(NCCO)n3)c2[nH]1 [Compound 489]

IC50 [1, 3]: < 10 µM
IC50 [2, 4]: > 10 µM
Compound: Fc1cnc(Nc2cccc(N3CCOCC3)c2)nc1NC1CCCCC1 [Compound 1166, N4-Cyclohexyl-5-fluoro-N2-(3-morpholinophenyl)-2,4-pyrimidinediamine]

IC50 [1, 12]: < 10 µM
IC50 [2, 13]: > 10 µM
Compound: Cc1cc(Nc2ncc(F)c(Nc3ccc4c(n3)NC(=O)C(C)(C)O4)n2)cc(Cl)c1OC1CCCC1 [Compound 1027, N2-(3-Chloro-4-cyclopentyloxy-5-methylphenyl)-N4-(2,2-dimethyl-3-oxo-4H-5-pyrid[1,4]oxazin-6-yl)-5-fluoro-2,4-pyrimidinediamine]

IC50 [1, 12]: > 10 µM
IC50 [1, 14]: > 10 µM
IC50 [2, 13]: > 10 µM
Compound: Cc1cc(Nc2ncc(F)c(Nc3ccc4c(n3)NC(=O)C(C)(C)O4)n2)cc(C)c1OCC(=O)NC1CCCC1 [Compound 1044, N2-[3,5-Dimethyl-4-(N-cyclopentylamino)carbonylmethyleneoxyphenyl]-N4-(2,2-dimethyl-3-oxo-4H-5-pyrid[1,4]oxazin-6-yl)-5-fluoro-2,4-pyrimidinediamine]

IC50 [1, 10]: < 10 µM
IC50 [2, 11]: > 10 µM
Compound: CNC(=O)COc1cccc(Nc2ncc(F)c(N(C)c3ccc(OC)c(OC)c3)n2)c1 [Compound 447, N4-(3,4-Dimethoxyphenyl)-5-fluoro-N4-methyl-N2-[3-(N-methylamino)carbonylmethyleneoxyphenyl]-2,4-pyrimidinediamine]

IC50 [1, 3]: > 10 µM
IC50 [2, 4]: > 10 µM
Compound: CC(=O)N1CCN(c2ccc(Nc3ncc(F)c(NC4CNC4)n3)cc2)CC1 [Compound 1124]

Reference: US20220073536A1 (Rigel Pharmaceuticals, Inc., priority 2003, published 2022)
